Results as given in PubChem BioAssay (NCI).
“And” between values parts separate entries of the source, which are not always exact repeats. Equal entries are not always repeated.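 Cells were grown in 96-well plates and exposed to each compound for 48 hours at five concentrations; endpoints were interpolated linearly between bracketing concentrations, or set to the highest concentration if not reached. GI50: concentration for 50% inhibition of growth. TGI: total growth inhibition.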

Legend:
Assay in all cases: growth of human tumour cells (NCI), 48 h
[1] = test system: CCRF-CEM leukemia
[2] = test system: COLO 205 colon
[3] = test system: HCT-116 colon
[4] = test system: HOP-92 NSCLC
[5] = test system: NCI-H226 lung
[6] = test system: RPMI-8226 leukemia
[7] = test system: RXF 393 renal
[8] = test system: HCT-15 colon

## O=C(OCc1nc2ccc(Br)cc2c(=O)n1-c1ccccc1)c1ccccc1O
[1]
  TGI: > 100 µM
[2]
  TGI: > 100 µM
[3]
  TGI: > 100 µM
[4]
  TGI: > 100 µM
[5]
  TGI: > 100 µM
[6]
  TGI: > 100 µM
[7]
  TGI: > 100 µM

## O=C1c2cccc3cccc(c23)C(=O)N1CCCN1CCN(CCCN2C(=O)c3cccc4cccc(c34)C2=O)CC1
[1]
  TGI: > 100 µM
[2]
  TGI: > 100 µM
[3]
  TGI: > 100 µM
[8]
  TGI: > 100 µM
[4]
  TGI: > 100 µM
[5]
  TGI: > 100 µM
[6]
  TGI: > 100 µM
[7]
  TGI: > 100 µM

## O=C1/C(=C/c2ccccc2)CN(C(=O)OCC(Cl)(Cl)Cl)C/C1=C\c1ccccc1
[1]
  TGI: 13.5 µM
[2]
  TGI: 11.2 µM
[3]
  TGI: 2.6 µM
[8]
  TGI: 4.32 µM
[6]
  TGI: 0.649 µM
[7]
  TGI: 3.87 µM

## Cc1cccc(N2C(=O)/C(=C/c3ccc(N(CCC#N)CCC#N)cc3C)N=C2c2cc([N+](=O)[O-])ccc2Cl)c1
[1]
  TGI: > 100 µM
[2]
  TGI: > 100 µM
[3]
  TGI: > 100 µM
[8]
  TGI: > 100 µM
[4]
  TGI: > 100 µM
[5]
  TGI: > 100 µM
[6]
  TGI: > 100 µM

## Cc1cccc(CC(C)(C)C)c1NC(=O)C(=O)C(C(=O)c1ccc2ccccc2c1)C1OC(=O)c2ccccc21 (stereo not drawn)
[2]
  TGI: 92 µM
[3]
  TGI: > 100 µM
[8]
  TGI: 41.4 µM
[4]
  TGI: 8.54 µM
[5]
  TGI: 7.12 µM
[6]
  TGI: > 100 µM
[7]
  TGI: 14.5 µM

## CCC1NCC(=O)c2c1[nH]c1ccccc21 (stereo not drawn)
[1]
  TGI: > 100 µM
[2]
  TGI: > 100 µM
[3]
  TGI: > 100 µM
[8]
  TGI: > 100 µM
[4]
  TGI: > 100 µM
[5]
  TGI: > 100 µM
[6]
  TGI: > 100 µM

## Cc1c(-c2coc(-c3ccc(Cl)cc3)n2)c(=O)n(-c2ccccc2)n1C
[1]
  TGI: > 100 µM
[2]
  TGI: > 100 µM
[3]
  TGI: > 100 µM
[8]
  TGI: > 100 µM
[4]
  TGI: > 100 µM
[5]
  TGI: > 100 µM
[6]
  TGI: > 100 µM

## CCCCCCCCC(=O)NCCCNCCCNC(=O)CCCCCCCC
[1]
  TGI: 14.9 µM
[2]
  TGI: 9.57 µM
[3]
  TGI: 9.54 µM
[8]
  TGI: 28.2 µM
[4]
  TGI: 14.1 µM
[5]
  TGI: 35.1 µM
[6]
  TGI: 11 µM
[7]
  TGI: 21.7 µM

## Cc1ns/c(=N\C(=S)N(C)C)n1C
[1]
  TGI: > 100 µM
[3]
  TGI: > 100 µM
[8]
  TGI: > 100 µM
[4]
  TGI: > 100 µM
[5]
  TGI: > 100 µM
[6]
  TGI: > 100 µM
[7]
  TGI: > 100 µM

## COc1cc2c(c(OC)c1OC)-c1ccc(SC)c(=O)cc1[C@@H](NC(=O)c1ccc(C#N)cc1)CC2
[2]
  TGI: < 0.01 µM
[3]
  TGI: 12.6 µM
[8]
  TGI: > 100 µM
[4]
  TGI: 10.6 µM
[5]
  TGI: < 0.01 µM
[6]
  TGI: > 100 µM

## Cc1[nH]c(=O)nc(N/N=C/c2ccc(O)cc2)c1C(=O)Nc1ccc(Cl)cc1
[1]
  TGI: > 100 µM
[2]
  TGI: > 100 µM
[3]
  TGI: > 100 µM
[8]
  TGI: > 100 µM
[5]
  TGI: > 100 µM
[6]
  TGI: > 100 µM

## O=C1c2ccccc2C(=O)c2c1ccc1c3ccccc3n(Cc3ccccc3)c21
[1]
  TGI: > 100 µM
[2]
  TGI: > 100 µM
[3]
  TGI: > 100 µM
[8]
  TGI: > 100 µM
[4]
  TGI: 94.2 µM
[5]
  TGI: > 100 µM
[6]
  TGI: > 100 µM

## O=C1CC2Sc3ccccc3N=C2N1c1ccc(Cl)cc1Cl (stereo not drawn)
[1]
  TGI: 52.9 µM
[2]
  TGI: > 100 µM
[3]
  TGI: > 100 µM
[4]
  TGI: > 100 µM
[5]
  TGI: > 100 µM
[6]
  TGI: > 100 µM
[7]
  TGI: > 100 µM

## CCOC(=O)NNC(=O)NC12CC3CC(CC(C3)C1)C2
[1]
  TGI: > 100 µM
[2]
  TGI: > 100 µM
[3]
  TGI: > 100 µM
[8]
  TGI: > 100 µM
[4]
  TGI: > 100 µM
[5]
  TGI: > 100 µM
[7]
  TGI: > 100 µM

## Clc1ccccc1C1=NN(c2ccccc2)C2c3cc(Br)ccc3OCC12 (stereo not drawn)
[1]
  TGI: > 100 µM
[2]
  TGI: > 100 µM
[3]
  TGI: > 100 µM
[4]
  TGI: > 100 µM
[6]
  TGI: > 100 µM
[7]
  TGI: > 100 µM

## Fc1nc(F)nc(-c2c3ccccc3c3n2CCS3)n1
[1]
  TGI: > 100 µM
[2]
  TGI: > 100 µM
[3]
  TGI: > 100 µM
[8]
  TGI: > 100 µM
[4]
  TGI: > 100 µM
[5]
  TGI: > 100 µM
[6]
  TGI: > 100 µM
[7]
  TGI: > 100 µM

## COc1cc(CC(=O)c2ccc3c(c2)OCO3)cc(OC)c1OC
[1]
  TGI: > 100 µM
[2]
  TGI: > 100 µM
[3]
  TGI: > 100 µM
[8]
  TGI: > 100 µM
[4]
  TGI: > 100 µM
[5]
  TGI: > 100 µM
[6]
  TGI: > 100 µM
[7]
  TGI: > 100 µM

## CC(C)=C1CCC(CN2CCCC2)C1=O (stereo not drawn)
[1]
  TGI: 39 µM
[3]
  TGI: 31.6 µM
[8]
  TGI: 35.5 µM
[4]
  TGI: 58.5 µM
[5]
  TGI: > 100 µM
[6]
  TGI: 37.8 µM
[7]
  TGI: 39.5 µM

## CCN1CC2(C)CC[C@@H](OC)C34[C@@H]2[C@H](OC(C)=O)C2(OCO[C@@]25C[C@H](OC)C2C[C@]3(O)[C@@H]5[C@H]2O)[C@H]14
[2]
  TGI: > 100 µM
[3]
  TGI: > 100 µM
[4]
  TGI: > 100 µM
[5]
  TGI: > 100 µM
[7]
  TGI: > 100 µM

## O=C1/C(=C/c2ccccc2)CN(C(=O)Oc2ccc([N+](=O)[O-])cc2)C/C1=C\c1ccccc1
[1]
  GI50: 1.72 µM
  TGI: 6.5 µM and 8.22 µM
[2]
  GI50: 4.95 µM
[3]
  GI50: 0.303 µM
  TGI: 1.65 µM and 1.08 µM
[8]
  GI50: 2.74 µM
  TGI: 5.63 µM
[6]
  GI50: 0.0844 µM
  TGI: 0.428 µM and 0.424 µM
[7]
  GI50: 1.59 µM
  TGI: 4.51 µM

## COc1ccccc1NC(=O)C(=O)C1C(=O)Nc2ccccc2S1=O (stereo not drawn)
[1]
  TGI: > 100 µM
[2]
  TGI: > 100 µM
[3]
  TGI: > 100 µM
[8]
  TGI: > 100 µM
[5]
  TGI: > 100 µM
[7]
  TGI: > 100 µM
